Key:
[1] = 101.3 kPa, Liquid; for viscosity: Concentric cylinders viscometry; for mass density: Vibrating tube method
[2] = xn = mol fraction of the nth substance listed; settings: 101.3 kPa, Liquid, x1 = 1; for viscosity: Concentric cylinders viscometry; for mass density: Vibrating tube method

CCCC[n+]1ccn(C)c1.O=S(=O)([N-]S(=O)(=O)C(F)(F)F)C(F)(F)F
[1]
Settings	mass density [kg/m3]	viscosity [mPa·s]
293.15 K	1441.2	64
298.15 K	1436.4	49.5
303.15 K	1431.5	39
313.15 K	1421.9	26.7
323.15 K	1412.4	20.1
333.15 K	1402.9	15.5
343.15 K	1393.5	12.4

CCCC[n+]1ccn(C)c1.O=S(=O)([N-]S(=O)(=O)C(F)(F)F)C(F)(F)F + O=S1(=O)CCCC1
[2]
Settings	mass density [kg/m3]	viscosity [mPa·s]
293.15 K	1441.2	64
298.15 K	1436.4	49.5
303.15 K	1431.5	39
313.15 K	1421.9	26.7
323.15 K	1412.4	20.1
333.15 K	1402.9	15.5
343.15 K	1393.5	12.4

OCC(O)CO [glycerol]
[1]
Settings	mass density [kg/m3]	viscosity [mPa·s]
313.15 K	1249	303
323.15 K	1242.4	139.3
333.15 K	1235.7	85.5
343.15 K	1228.9	50.5
353.15 K	1221.9	31.2
363.15 K	1214.8	19.9

OCC(O)CO [glycerol] + O=S1(=O)CCCC1
[2]
Settings	mass density [kg/m3]	viscosity [mPa·s]
313.15 K	1249	303
323.15 K	1242.4	139.3
333.15 K	1235.7	85.5
343.15 K	1228.9	50.5
353.15 K	1221.9	31.2
363.15 K	1214.8	19.9

O=S1(=O)CCCC1 [sulfolane]
[1]
Settings	mass density [kg/m3]	viscosity [mPa·s]
298.15 K	1266.4	11.9
303.15 K	1259.4	10.5
313.15 K	1251.7	8.1
323.15 K	1244	6.4
333.15 K	1235.4	5.2
343.15 K	1225	4.3
353.15 K	1215	3.7
363.15 K	1206	3.2
